In patent publication US20240285555A1, “COMPOSITIONS FOR THE TREATMENT OF COPPER DEFICIENCY AND METHODS OF USE” (priority 2018, published 2024):
pEC50: −log10 of the molar value.

Tested on: Yeast coa6Δ cells
Experiment: Rescue of respiratory growth of yeast coa6Δ cells in YPGE medium (cell density at 600 nm)
Assay type: cell-based, Saccharomyces cerevisiae
Procedure: FIG. 1 illustrates determination of the median effective dose (ED50) of elesclomol. Yeast coa6Δ cells were cultured in YPGE medium at 37° C. in the presence of increasing concentrations (0.01 nM to 1 μM) of elesclomol (ES). The cell density was measured spectrophotometrically after 58 hours of growth at 600 nm. The data represent the average±SD from three independent measurements.
FIGS. 3A and 3B illustrates elesclomol rescue of respiratory growth of coa6Δ cells is dependent on copper availability. BY4741 WT, FIG. 3A, and coa6Δ, FIG. 3B, cells were cultured in YPGE medium at 37° C. in the presence of 10 nM ES, 20 μM of the copper chelator bathocuproine disulfonic acid (BCS), or a combination of both. The cell density was measured spectrophotoretrically at the indicated time points at 600 nm. The data are representative of two independent experiments.
Yeast Strains and Culture Conditions. The authenticity of yeast strains was confirmed by PCR as well as by replica plating on dropout plates. Yeast cells were cultured in standard YP growth media including YPD (1% yeast extract, 2% peptone and 2% glucose), YPGal (2% galactose), YPGE (3% glycerol+1% ethanol), or synthetic media (SC glucose). For qualitative growth measurement, 10-fold serial dilutions of overnight cultures were spotted on YPD or YPGE plates and incubated at 30° C. and 37° C. for the indicated period. Growth in liquid media was measured spectrophotometrically at 600 nm.
A number of copper-binding pharmacological agents were tested for their ability to rescue respiratory deficient growth of coa6Δ cells. […] ES rescued the respiratory growth of coa6Δ cells with an ED50 of 0.8 nM (FIG. 1). ES-mediated growth rescue of coa6Δ cells was also observed on solid growth medium containing a non-fermentable carbon. […] To determine the biochemical basis for the observed respiratory rescue of coa6Δ cells, the assembly and activity of CcO-containing mitochondrial respiratory chain supercomplexes was measured by native-polyacrylamide gel electrophoresis blotting and in-gel activity assay, respectively. […]

Q: What does the source list for CN(NC(=O)CC(=O)NN(C)C(=S)c1ccccc1)C(=S)c1ccccc1 [ES, elesclomol]?
A: ES mediated rescue in the presence of BCS (10 nM ES with 20 μM BCS): diminished; potency relative to copper in rescuing the respiratory growth defect (ES versus copper): at least 1000 times; pEC50 (Saccharomyces cerevisiae, YPGE medium, 37° C., 0.01 nM to 1 μM ES, cell density at 600 nm after 58 hours, read-out: ED50 of rescue of respiratory growth): 9.10
